In article PMC5890513 (Antiviral Chemistry & Chemotherapy, 2017):

Columns and labels:
in vitro = settings: monkey
SFTSV = assay: microbe, parasite or virus in culture; assay type: cell-based, severe fever with thrombocytopenia syndrome virus; settings: for EC50: Severe fever with thrombocytopenia syndrome virus, Vero, 72 h, read-out: EC50 (50% effective concentration), anti-SFTSV activity

Structure (SMILES) | CC50 (in vitro) [µM] | anti-SFTSV activity (intracellular SFTSV RNA level), in words (SFTSV) | EC50 (SFTSV) [µM] | viability of mock-infected Vero cells (Vero cells)
CCN(CC)Cc1cc(Nc2ccnc3cc(Cl)ccc23)ccc1O [Compound 1, 4-(7-Chloroquinolin-4-ylamino)-2-diethylaminomethylphenol] | > 100 | selective inhibitor of SFTSV replication | 19.1 ± 5.1 | –
CCN(CC)Cc1cc(Nc2ccnc3cc(F)ccc23)ccc1O [Compound 2, 4-(7-Fluoroquinolin-4-ylamino)-2-diethylaminomethylphenol] | > 100 | – | 36.6 ± 9.3 | –
CCN(CC)Cc1cc(Nc2ccnc3cc(Br)ccc23)ccc1O [Compound 3, 4-(7-Bromoquinolin-4-ylamino)-2-diethylaminomethylphenol] | > 100 | – | 31.1 ± 16.8 | –
CCN(CC)Cc1cc(Nc2ccnc3cc(I)ccc23)ccc1O [Compound 4, 4-(7-Iodoquinolin-4-ylamino)-2-diethylaminomethylphenol] | > 100 | – | 15.6 ± 4.9 | –
NC(=O)c1nc(F)c[nH]c1=O [Favipiravir] | > 100 | reduced the intracellular SFTSV RNA level in a dose-dependent manner | 25 ± 9.3 | did not reduce the viability
NC(=O)c1ncn([C@@H]2O[C@H](CO)[C@@H](O)[C@H]2O)n1 [Ribavirin] | > 100 | reduced the intracellular SFTSV RNA level in a dose-dependent manner | 40.1 ± 16.3 | did not reduce the viability
